Results reported in patent publication US11318103B2, “Treating soft tissue via controlled drug release” (University of Pittsburgh—Of the Commonwealth System of …, priority 2014, dated 2022).

Tests used:
[1] = system: human osteochondral plugs; test: T3-induced calcification of human osteochondral plugs (ALP assay, real time-PCR); type: cell-based; conditions: treatment with triiodothyronine (T3), day 0 versus day 20
Description: FIG. 5 represents the outline for testing of preventing calcification. Experimental design to test the effects of triiodothyronine in inducing calcification and of dorsomorphin in inhibiting calcification in human osteochondral biopsies, an example of which is depicted on the right.
FIG. 6 is two graphs depicting ALP activity. The graphs represent the level of ALP activity in the osteochondral constructs media measured with a colorimetric ALP assay for the samples outlined in the previous figure.
Dorsomorphin has been encapsulated in PLGA-based MPs of micrometer scale dimensions. As the particles degrade, dorsomorphin is released generating a local concentration within the range required to prevent local calcification. To confirm this, human osteochondral plugs (3 mm by 3 mm by 8 mm of a cartilage and bone biopsy-like sample) have been forced to calcify using triiodothyronine (T3) and then exposed to dorsomorphin.

[2] = system: human chondrocytes; test: T3-induced hypertrophy of primary chondrocytes; type: cell-based; conditions: T3 medium 14 or 21 days, maintained after exposure to chondrogenic medium
Description: FIGS. 7A-7F are microphotographs of human chondrocytes. Chondrocytes extracted from human donors have been cultured under a test medium to induce hypertrophy for 14 or 21 days followed by 14 or 7 days of chondrogenic medium, respectively. The test medium was either chondrogenic medium (negative control, no hypertrophy), medium containing triiodothyronine (T3) (hypertrophic), osteogenic medium (hypertrophic).
In autologous chondrocytes implantation (ACI) chondrocytes are implanted in a local cartilage defect. In an in vitro model of ACI based on a small osteochondral unit, as the one we use, a central cartilage defect would be filled with chondrocytes in a hydrogel. To simulate conditions of calcification, the chondrocytes will be pre-cultured in a hypertrophy inducing medium. After seeding, both native cartilage and implanted chondrocytes would be exposed to chondrogenic medium. We have previously shown that T3 induces hypertrophy in MSCs that underwent chondrogenic differentiation. […] Chondrogenic medium and osteogenic medium are used as comparison.

Structure (SMILES): N[C@@H](Cc1cc(I)c(Oc2ccc(O)c(I)c2)c(I)c1)C(=O)O [triiodothyronine]
- ALP activity in osteochondral constructs media [1]: statistically significant (p<0.05) increase in ALP activity
- primary chondrocytes hypertrophy [2]: effective to induce primary chondrocytes hypertrophy
